From US12486290B2, “Isoindolinone and indazole compounds for the degradation of EGFR” (C4 THERAPEUTICS, INC., priority 2019, dated 2025)

How the values were obtained:
Type in all cases: cell-based
[1] = target: T1, EGFR L858R (NCI-H3255 cells) (Homo sapiens, UniProt P00533, L858R); test: EGFR (L858R) degradation analysis, Total EGFR (L858R) HTRF, NCI-H3255 cells; conditions: 6 hours
T1 construct: NCI-H3255 (harboring EGFR heterozygous L858R mutation); host or cells: NCI-H3255
Method in brief: (§1)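 Cells (10000/well NCI-H1975 and NCI-H1975+CS, 1000/well NCI-H3255) treated with 11-point half-log titrations from 10 μM top, in duplicate, for 6 hours at 37° C., 5% CO2. Total EGFR (L858R) quantified by HTRF FRET; untreated cells as negative and cell-free wells as positive control.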

[2] = target: T2, EGFR T790M/L858R (NCI-H1975 cells) (Homo sapiens, UniProt P00533, L858R/T790M); test: EGFR (L858R) degradation analysis, Total EGFR (L858R) HTRF, NCI-H1975 cells; conditions: 6 hours
T2 construct: NCI-H1975 (harboring EGFR heterozygous T790M/L858R mutations); host or cells: NCI-H1975
T2 sequence (P00533 25-1210 T790M/L858R): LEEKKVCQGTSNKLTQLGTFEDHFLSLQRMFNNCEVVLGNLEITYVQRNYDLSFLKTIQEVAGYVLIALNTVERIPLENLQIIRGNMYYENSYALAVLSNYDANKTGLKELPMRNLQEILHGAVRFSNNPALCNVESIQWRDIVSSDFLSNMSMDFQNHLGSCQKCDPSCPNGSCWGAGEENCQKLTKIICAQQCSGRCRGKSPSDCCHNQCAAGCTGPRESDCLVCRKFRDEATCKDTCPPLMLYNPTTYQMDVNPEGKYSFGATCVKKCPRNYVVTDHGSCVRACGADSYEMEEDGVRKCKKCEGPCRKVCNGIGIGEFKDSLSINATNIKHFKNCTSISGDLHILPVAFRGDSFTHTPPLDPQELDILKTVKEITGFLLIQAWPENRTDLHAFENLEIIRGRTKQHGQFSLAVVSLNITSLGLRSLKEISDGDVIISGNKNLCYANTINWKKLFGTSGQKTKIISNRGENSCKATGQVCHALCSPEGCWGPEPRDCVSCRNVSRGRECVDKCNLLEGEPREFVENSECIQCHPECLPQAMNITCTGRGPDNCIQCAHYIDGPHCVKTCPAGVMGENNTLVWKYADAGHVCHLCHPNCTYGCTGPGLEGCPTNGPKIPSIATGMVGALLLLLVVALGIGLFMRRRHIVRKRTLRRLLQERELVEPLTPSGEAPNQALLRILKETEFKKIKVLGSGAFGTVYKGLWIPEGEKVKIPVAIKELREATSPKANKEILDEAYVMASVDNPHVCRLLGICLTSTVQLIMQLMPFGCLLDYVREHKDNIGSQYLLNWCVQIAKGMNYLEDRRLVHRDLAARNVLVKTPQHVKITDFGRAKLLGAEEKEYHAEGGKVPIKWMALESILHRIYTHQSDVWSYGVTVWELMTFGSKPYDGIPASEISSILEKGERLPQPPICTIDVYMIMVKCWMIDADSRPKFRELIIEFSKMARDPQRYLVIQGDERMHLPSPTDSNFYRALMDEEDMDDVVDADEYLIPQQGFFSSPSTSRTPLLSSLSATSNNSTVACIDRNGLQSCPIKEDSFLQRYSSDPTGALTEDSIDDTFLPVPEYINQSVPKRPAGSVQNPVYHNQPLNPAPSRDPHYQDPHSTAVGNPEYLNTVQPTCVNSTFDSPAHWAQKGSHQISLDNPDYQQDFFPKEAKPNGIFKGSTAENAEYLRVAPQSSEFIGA
Method in brief: as §1

[3] = target: T3, EGFR T790M/L858R/C797S (NCI-H1975+CS cells) (Homo sapiens, UniProt P00533, C797S/L858R/T790M); test: EGFR (L858R) degradation analysis, Total EGFR (L858R) HTRF, NCI-H1975+CS cells; conditions: 6 hours, read-out: H1975 C797S clone EGFR DC50
T3 construct: NCI-H1975+CS (harboring EGFR heterozygous T/790M/L858R/C797S mutations) was generated using CRISPR technology; host or cells: NCI-H1975+CS (CRISPR-edited NCI-H1975)
T3 sequence (P00533 25-1210 T790M/C797S/L858R): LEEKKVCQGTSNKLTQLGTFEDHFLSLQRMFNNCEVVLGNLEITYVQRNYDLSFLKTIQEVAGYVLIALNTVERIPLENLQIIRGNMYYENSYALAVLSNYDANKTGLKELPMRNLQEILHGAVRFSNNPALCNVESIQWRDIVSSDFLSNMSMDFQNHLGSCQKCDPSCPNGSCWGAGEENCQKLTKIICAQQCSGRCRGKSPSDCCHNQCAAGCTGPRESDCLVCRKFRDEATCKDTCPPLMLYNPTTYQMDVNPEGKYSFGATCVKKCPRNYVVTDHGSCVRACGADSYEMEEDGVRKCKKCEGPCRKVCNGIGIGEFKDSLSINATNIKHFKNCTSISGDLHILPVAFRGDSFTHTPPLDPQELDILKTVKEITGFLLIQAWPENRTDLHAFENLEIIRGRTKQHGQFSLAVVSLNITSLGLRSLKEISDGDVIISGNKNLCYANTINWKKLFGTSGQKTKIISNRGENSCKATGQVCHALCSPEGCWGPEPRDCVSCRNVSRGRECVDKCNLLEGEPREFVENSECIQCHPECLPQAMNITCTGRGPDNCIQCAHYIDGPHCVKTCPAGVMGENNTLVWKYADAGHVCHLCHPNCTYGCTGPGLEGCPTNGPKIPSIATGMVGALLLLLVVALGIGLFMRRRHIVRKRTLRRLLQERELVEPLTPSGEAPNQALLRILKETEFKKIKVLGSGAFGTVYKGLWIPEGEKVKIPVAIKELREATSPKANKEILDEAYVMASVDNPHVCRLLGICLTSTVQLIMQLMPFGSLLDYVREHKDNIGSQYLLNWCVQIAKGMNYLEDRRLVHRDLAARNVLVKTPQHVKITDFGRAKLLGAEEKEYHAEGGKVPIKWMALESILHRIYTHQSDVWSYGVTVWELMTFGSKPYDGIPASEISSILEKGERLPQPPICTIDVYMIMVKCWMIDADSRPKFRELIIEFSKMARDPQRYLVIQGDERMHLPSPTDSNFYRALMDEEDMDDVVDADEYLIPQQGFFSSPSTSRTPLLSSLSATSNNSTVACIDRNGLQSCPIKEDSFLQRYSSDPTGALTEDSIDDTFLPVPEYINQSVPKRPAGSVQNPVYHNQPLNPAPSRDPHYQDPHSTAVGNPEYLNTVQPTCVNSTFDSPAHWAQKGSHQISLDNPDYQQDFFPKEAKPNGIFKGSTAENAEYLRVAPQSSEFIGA
From the text: NCI-H1975 (harboring EGFR heterozygous T790M/L858R mutations) and NCI-H3255 (harboring EGFR heterozygous L858R mutation) were purchased from ATCC and NCI, respectively. NCI-H1975+CS (harboring EGFR heterozygous T/790M/L858R/C797S mutations) was generated using CRISPR technology to introduce the additional C797S mutation by Horizon Discovery. RPMI 1640 no-phenol red medium and fetal bovine serum (FBS) were purchased from Gibco (Grand Island, NY, USA). Cell culture flasks and 384-well microplates were acquired from VWR (Radnor, PA, USA). Total EGFR (L858R) HTRF assay kits were purchased from Cisbio (Bedford, MA, USA).
Degradation of EGFR protein containing L858R mutation was determined based on quantification of FRET signal using Total EGFR (L858R) HTRF assay kit. Test compounds were added to the 384-well plate from a top concentration of 10 μM with 11 points, half log titration in duplicates. NCI-H1975, NCI-H1975+CS or NCI-H3255 cells were added into 384-well plates at a cell density of 10000, 10000 or 1000 cells per well, respectively. The plates were kept at 37° C. with 5% CO2 for 6 hours. Cells treated in the absence of the test compound were the negative control. Positive control was set by wells containing all reagents but no cells. FRET signal was acquired on EnVision™ Multilabel Reader (PerkinElmer, Santa Clara, CA, USA).

T1 sequence (P00533 25-1210 L858R): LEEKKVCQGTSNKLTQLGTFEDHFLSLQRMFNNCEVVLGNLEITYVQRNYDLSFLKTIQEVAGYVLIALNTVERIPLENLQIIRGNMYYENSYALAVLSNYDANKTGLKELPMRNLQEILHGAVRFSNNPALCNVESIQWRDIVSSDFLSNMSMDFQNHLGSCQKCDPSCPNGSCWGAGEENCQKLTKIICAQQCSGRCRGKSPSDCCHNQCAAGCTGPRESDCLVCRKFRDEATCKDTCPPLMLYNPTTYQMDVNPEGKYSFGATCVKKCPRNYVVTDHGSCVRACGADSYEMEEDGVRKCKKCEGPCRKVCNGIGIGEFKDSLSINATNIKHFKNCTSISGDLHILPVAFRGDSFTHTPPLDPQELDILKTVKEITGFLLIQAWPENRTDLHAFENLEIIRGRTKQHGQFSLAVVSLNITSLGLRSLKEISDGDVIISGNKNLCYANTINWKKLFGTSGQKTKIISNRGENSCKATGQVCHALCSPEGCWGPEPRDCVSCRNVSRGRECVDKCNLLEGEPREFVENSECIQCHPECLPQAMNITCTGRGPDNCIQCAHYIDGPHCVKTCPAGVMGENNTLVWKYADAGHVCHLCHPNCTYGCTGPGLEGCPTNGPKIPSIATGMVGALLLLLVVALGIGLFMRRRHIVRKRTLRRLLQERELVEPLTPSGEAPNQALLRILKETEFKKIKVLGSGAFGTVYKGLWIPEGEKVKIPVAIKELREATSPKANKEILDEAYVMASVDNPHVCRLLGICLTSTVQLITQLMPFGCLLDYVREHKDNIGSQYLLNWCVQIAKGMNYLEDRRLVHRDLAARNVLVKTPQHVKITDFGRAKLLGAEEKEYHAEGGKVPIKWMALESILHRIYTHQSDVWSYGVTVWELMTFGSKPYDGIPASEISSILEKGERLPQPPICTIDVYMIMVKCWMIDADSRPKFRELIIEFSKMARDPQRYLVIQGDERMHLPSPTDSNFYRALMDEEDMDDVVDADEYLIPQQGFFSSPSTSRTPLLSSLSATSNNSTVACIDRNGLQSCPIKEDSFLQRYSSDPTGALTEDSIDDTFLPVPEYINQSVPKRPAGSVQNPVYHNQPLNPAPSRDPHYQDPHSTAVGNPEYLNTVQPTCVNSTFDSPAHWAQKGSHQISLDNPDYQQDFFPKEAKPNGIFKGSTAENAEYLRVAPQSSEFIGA

Structure (SMILES) | DC50 [1] [nM] | DC50 [2] [nM] | DC50 [3] [nM]
O=C1CCC(Nc2ccc(C3CCN(CC(=O)N4CCC(c5ccc(-c6cc(F)c7c(c6)C(=O)N(C(C(=O)Nc6nccs6)c6ncn8c6CCC8)C7)cc5)CC4)CC3)cc2)C(=O)N1 (stereo not drawn) [Compound 21, 2-(6,7-dihydro-5H-pyrrolo[1,2-c]imidazol-1-yl)-2-(6-(4-(1-(2-(4-(4-((2,6-dioxopiperidin-3-yl)amino)phenyl)piperidin-1-yl)acetyl)piperidin-4-yl)phenyl)-4-fluoro-1-oxoisoindolin-2-yl)-N-(thiazol-2-yl)acetamide] | 11 | 31 | 17
O=C1CC[C@@H](Nc2ccc(C3CCN(CC(=O)N4CCC(c5ccc(-c6cc(F)c7c(c6)C(=O)N(C(C(=O)Nc6nccs6)c6ncn8c6CCC8)C7)cc5)CC4)CC3)c(F)c2)C(=O)N1 (stereo partly drawn) [Compound 24, 2-(6,7-dihydro-5H-pyrrolo[1,2-c]imidazol-1-yl)-2-(6-(4-(1-(2-(4-(4-(((R)-2,6-dioxopiperidin-3-yl)amino)-2-fluorophenyl)piperidin-1-yl)acetyl)piperidin-4-yl)phenyl)-4-fluoro-1-oxoisoindolin-2-yl)-N-(thiazol-2-yl)acetamide] | 6 | 70 | 24
N#Cc1cc(NC2CCC(=O)NC2=O)ccc1C1CCN(CC(=O)N2CCC(c3ccc(-c4cc(F)c5c(c4)C(=O)N(C(C(=O)Nc4nccs4)c4ncn6c4CCC6)C5)cc3)CC2)CC1 (stereo not drawn) [Compound 25, 2-(6-(4-(1-(2-(4-(2-cyano-4-((2,6-dioxopiperidin-3-yl)amino)phenyl)piperidin-1-yl)acetyl)piperidin-4-yl)phenyl)-4-fluoro-1-oxoisoindolin-2-yl)-2-(6,7-dihydro-5H-pyrrolo[1,2-c]imidazol-1-yl)-N-(thiazol-2-yl)acetamide] | 6 | 25 | 17
O=C1CC[C@H](Nc2ccc(C3CCN(CC(=O)N4CCC(Oc5ccc(-c6cc(F)c7c(c6)C(=O)N(C(C(=O)Nc6nccs6)c6ncn8c6CCC8)C7)cc5)CC4)CC3)cc2)C(=O)N1 (stereo partly drawn) [Compound 32, 2-(6,7-dihydro-5H-pyrrolo[1,2-c]imidazol-1-yl)-2-[6-[4-[[1-[2-[4-[4-[[(3S)-2,6-dioxo-3-piperidyl]amino]phenyl]-1-piperidyl]acetyl]-4-piperidyl]oxy]phenyl]-4-fluoro-1-oxo-isoindolin-2-yl]-N-thiazol-2-yl-acetamide] | 12 | 47 | 11
O=C1CC[C@@H](Nc2ccc(C3CCN(CC(=O)N4CCC(Oc5ccc(-c6cc(F)c7c(c6)C(=O)N(C(C(=O)Nc6nccs6)c6ncn8c6CCC8)C7)cc5)CC4)CC3)cc2)C(=O)N1 (stereo partly drawn) [Compound 33, 2-(6,7-dihydro-5H-pyrrolo[1,2-c]imidazol-1-yl)-2-[6-[4-[[1-[2-[4-[4-[[(3R)-2,6-dioxo-3-piperidyl]amino]phenyl]-1-piperidyl]acetyl]-4-piperidyl]oxy]phenyl]-4-fluoro-1-oxo-isoindolin-2-yl]-N-thiazol-2-yl-acetamide] | 8 | 38 | 19
O=C1CCC(Nc2ccc(C3CCN(CC(=O)N4CCC(Oc5ccc(-c6cc(F)c7c(c6)C(=O)N(C(C(=O)Nc6nccs6)c6ncn8c6CCC8)C7)cc5)CC4)CC3)cc2F)C(=O)N1 (stereo not drawn) [Compound 34, 2-(6,7-dihydro-5H-pyrrolo[1,2-c]imidazol-1-yl)-2-(6-(4-((1-(2-(4-(4-((2,6-dioxopiperidin-3-yl)amino)-3-fluorophenyl)piperidin-1-yl)acetyl)piperidin-4-yl)oxy)phenyl)-4-fluoro-1-oxoisoindolin-2-yl)-N-(thiazol-2-yl)acetamide] | 13 | 57 | 22
